# Values quoted from earlier work, collected in patent publication US10821185B2, “Triglyceride otic formulations and uses thereof” (Otonomy, Inc., priority 2016, dated 2020).
# pIC50: −log10 of the molar value. Counter-ions that a name gives are not always drawn.
# Columns and labels:
# [1] = systemically treated
# [2] = system: rat arthritis model; conditions: 30 mg/kg
# [3] = target: D136A mutant VP2 receptor (Homo sapiens, UniProt P30518, D136A)
# [4] = system: V2-R; conditions: infusion into the scala tympani
# [5] = system: TNF-α; conditions: LPS-challenged mice
# [6] = after topical application
# [7] = system: LPS-induced MonoMac-6 cells; conditions: read-out: IC50 for inhibiting TNF-α production
# [8] = system: LPS-induced human PBMC cells; conditions: read-out: IC50 for inhibiting TNF-α production
# [9] = system: mouse collagen-induced arthritis model; conditions: 30 mg/kg dose
# [10] = systemic administration
# [11] = system: tinnitus; conditions: administered by IV
compound,measurement,setting,value
etanercept,patients experiencing injection site reactions,[1],over one-third of patients
COc1cccc2nc(-c3cccs3)nc(NN3C(=O)C=C(C)C3=O)c12 [SPC-839],paw edema,[2],reduces paw edema
"Cc1ccccc1C(=O)Nc1ccc(C(=O)N2CCCC(N(C)C)c3ccccc32)cc1 (racemic) [OPC-31260, (±)-5-dimethylamino-1-(4-[2-methylbenzoylamino]benzoyl)-2,3,4,5-tetrahydro-1H-benzazepin hydrochloride]",behaviour at constitutively activated D136A mutant VP2 receptor,[3],inverse agonist
same,Meniere's disease symptoms,[4],marked reduction of Meniere's disease symptoms
O=C(Nc1cc(Cl)cc2c1[nH]c1cnccc12)c1cccnc1 [PS-1145],production of TNF-α,[5],reduces the production of TNF-α
"C=CC[C@@H]1/C=C(\C)C[C@H](C)C[C@H](OC)[C@H]2O[C@@](O)(C(=O)C(=O)N3CCCC[C@H]3C(=O)O[C@H](/C(C)=C/[C@@H]3CC[C@@H](O)[C@H](OC)C3)[C@H](C)[C@@H](O)CC1=O)[C@H](C)C[C@@H]2OC (relative stereo) [tacrolimus, [3S-[3R*[E(1S*,3S*,4S*)], 4S*,5R*,8S*,9E,12R*,14R*,15S*,16R*,18S*,19S*,26aR*]]-5,6,8,11,12,13,14,15,16,17,18,19,24,25,26,26a-hexadecahydro-5,19-dihydroxy-3-[2-(4-hydroxy-3-methoxycyclohexyl)-1-methylethenyl]-14,16-dimethoxy-4,10,12,18-tetramethyl-8-(2-propenyl)-15,19-epoxy-3H-pyrido[2,1-39c][1,4]oxaazacyclotricosine-1,7,20,21(4H,23H)-tetrone monohydrate]",bioavailability,[6],less than 0.5%
CC(C)C[C@@H](C(=O)N[C@@H](CCCN/C(N)=N/[N+](=O)[O-])C(=O)Nc1nccs1)[C@H](C(C)C)N(O)C=O [Nitroarginine analog A],pIC50,[7],7.47
CC[C@H](C)[C@H](NC(=O)[C@H](CC(C)C)[C@H](C(C)C)N(O)C=O)C(=O)Nc1ccccn1 [GW3333],pIC50,[8],6.01
Cc1ccc2nc(NCCN)c3ncc(C)n3c2c1 [BMS-345541],severity of disease,[9],significantly reduced the severity of disease
adalimumab,"patients developing injection site reactions (erythema and/or itching, hemorrhage, pain and/or swelling)",[10],20%
CCN(CC)CC(=O)Nc1c(C)cccc1C [Lidocaine],sufferers in whom the noise associated with tinnitus is reduced or eliminated,[11],60-80%
"CCOc1ccc2c(c1)C1(CCC(OCCN3CCOCC3)CC1)C(=O)N2S(=O)(=O)c1ccc(C(=O)NC(C)(C)C)cc1OC (stereo not drawn) [SR-1211463, 1-(4-(N-tert-butylcarbamoyl)-2-methoxybenzenesulfonyl)-5-ethoxy-3-spiro-(4-(2-morpholinoethoxy)cyclohexane)indol-2-one fumarate]",behaviour at constitutively activated D136A mutant VP2 receptor,[3],inverse agonist
